Experimental data from patent US20020026053A1, “Novel 3-(substituted) -2- indolinones compounds and use thereof as inhibitors of protein kinase activity” (priority 1997, published 2002).

molecular target: T1, Met receptor (EGFR/Met chimeric cells, EMR) (Homo sapiens, UniProt P08581); assay: Met Autophosphorylation Assay; assay type: biochemical; settings: protocol P.130
T1 construct: expressed in transfected cells; the other entry of the earlier key: EGFR (P00533, Epidermal growth factor receptor)
T1 sequence (P08581 with tags, fused parts or gaps): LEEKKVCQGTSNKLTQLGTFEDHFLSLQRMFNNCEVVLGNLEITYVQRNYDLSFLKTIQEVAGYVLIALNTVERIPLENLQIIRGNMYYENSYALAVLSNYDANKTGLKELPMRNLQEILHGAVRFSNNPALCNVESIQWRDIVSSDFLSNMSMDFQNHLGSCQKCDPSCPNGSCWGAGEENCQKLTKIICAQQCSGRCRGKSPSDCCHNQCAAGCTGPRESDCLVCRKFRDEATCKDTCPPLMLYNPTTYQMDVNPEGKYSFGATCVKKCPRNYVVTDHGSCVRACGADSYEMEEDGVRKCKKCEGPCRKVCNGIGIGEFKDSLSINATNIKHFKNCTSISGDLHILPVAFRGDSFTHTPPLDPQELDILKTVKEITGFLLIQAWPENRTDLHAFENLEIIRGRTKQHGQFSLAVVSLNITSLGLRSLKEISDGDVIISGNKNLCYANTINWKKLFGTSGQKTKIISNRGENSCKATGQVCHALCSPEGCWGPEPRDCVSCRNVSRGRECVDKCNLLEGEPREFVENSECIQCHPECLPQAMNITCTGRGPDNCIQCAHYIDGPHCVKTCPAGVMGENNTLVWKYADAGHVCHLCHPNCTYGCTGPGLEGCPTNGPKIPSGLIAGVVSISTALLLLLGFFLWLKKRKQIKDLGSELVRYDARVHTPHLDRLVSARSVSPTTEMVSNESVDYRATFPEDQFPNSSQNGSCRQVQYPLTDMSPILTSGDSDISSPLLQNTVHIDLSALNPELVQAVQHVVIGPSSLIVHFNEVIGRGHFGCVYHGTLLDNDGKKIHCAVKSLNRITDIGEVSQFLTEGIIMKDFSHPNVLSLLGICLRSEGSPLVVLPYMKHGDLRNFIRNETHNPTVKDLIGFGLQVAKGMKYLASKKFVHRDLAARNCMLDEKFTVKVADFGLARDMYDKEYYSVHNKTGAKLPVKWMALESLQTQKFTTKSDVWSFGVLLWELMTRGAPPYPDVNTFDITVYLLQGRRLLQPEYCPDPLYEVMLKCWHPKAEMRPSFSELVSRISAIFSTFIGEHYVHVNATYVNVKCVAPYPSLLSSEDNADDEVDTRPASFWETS
Outline: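 Transiently transfected EGFR/Met chimeric (EMR) cells were lysed in HNTG with 1 mM PMSF. Met was captured on plates coated with goat anti-rabbit IgG, then rabbit anti-Met (C-28), using 90 μg lysate/100 μl for 60 min at room temperature. Phosphotyrosine was read by ELISA.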

Structure (SMILES)	Met Kinase % Inhibition (P.130)
Cc1ccc(C)c(C=C2C(=O)Nc3c(Br)cc(Br)c(C)c32)c1 [10737/H07]	51.8%
Cc1c(Br)cc(Br)c2c1C(=Cc1ccc3ccccc3c1)C(=O)N2 [10737/H08]	28.0%
Cc1c(Br)cc(Br)c2c1C(=Cc1ccc(Oc3ccccc3)cc1)C(=O)N2 [10737/H09]	38.1%
Cc1c(Br)cc(Br)c2c1C(=Cc1cccc(Oc3ccc(C(C)(C)C)cc3)c1)C(=O)N2 [10737/H10]	51.6%
Cc1c(Br)cc(Br)c2c1C(=Cc1cccc(Oc3cccc(C(F)(F)F)c3)c1)C(=O)N2 [10737/H11]	31.7%
Cc1ccc(Oc2cccc(C=C3C(=O)Nc4c(Br)cc(Br)cc43)c2)cc1 [10738/A02]	10.0%
O=C1Nc2c(Br)cc(Br)cc2C1=Cc1cccc(Oc2ccc(Cl)c(Cl)c2)c1 [10738/A03]	20.7%
COc1ccc(C=C2C(=O)Nc3c(Br)cc(Br)cc32)cc1O [10738/A04]	55.9%
O=C1Nc2c(Br)cc(Br)cc2C1=Cc1cc(O)ccc1[N+](=O)[O-] [10738/A05]	33.1%
O=C1Nc2c(Br)cc(Br)cc2C1=Cc1cccc(O)c1O [10738/A06]	95.8%
O=C1Nc2c(Br)cc(Br)cc2C1=Cc1cc(O)cc(O)c1 [10738/A07]	72.7%
O=C1Nc2c(Br)cc(Br)cc2C1=Cc1ccc(Cl)c(Cl)c1 [10738/A08]	12.2%
COc1ccccc1C=C1C(=O)Nc2c(Br)cc(Br)cc21 [10738/A09]	20.2%
CC(C)c1ccc(C=C2C(=O)Nc3c(Br)cc(Br)cc32)cc1 [10738/A10]	35.7%
CCCOc1ccc(C=C2C(=O)Nc3c(Br)cc(Br)cc32)cc1 [10738/A11]	41.7%
Cc1ccc(Oc2cccc(C=C3C(=O)Nc4ccc(I)cc43)c2)cc1 [10738/B02]	78.7%
O=C1Nc2ccc(I)cc2C1=Cc1cccc(Oc2ccc(Cl)c(Cl)c2)c1 [10738/B03]	74.0%
COc1ccc(C=C2C(=O)Nc3ccc(I)cc32)cc1O [10738/B04]	70.7%
O=C1Nc2ccc(I)cc2C1=Cc1cc(O)ccc1[N+](=O)[O-] [10738/B05]	67.6%
O=C1Nc2ccc(I)cc2C1=Cc1cccc(O)c1O [10738/B06]	83.6%
O=C1Nc2ccc(I)cc2C1=Cc1cc(O)cc(O)c1 [10738/B07]	66.7%
O=C1Nc2ccc(I)cc2C1=Cc1ccc(Cl)c(Cl)c1 [10738/B08]	70.9%
COc1ccccc1C=C1C(=O)Nc2ccc(I)cc21 [10738/B09]	79.4%
CC(C)c1ccc(C=C2C(=O)Nc3ccc(I)cc32)cc1 [10738/B10]	70.7%
CCCOc1ccc(C=C2C(=O)Nc3ccc(I)cc32)cc1 [10738/B11]	75.4%
Cc1ccc(Oc2cccc(C=C3C(=O)Nc4ccc(Br)c(C)c43)c2)cc1 [10738/C02]	4.3%

Structure (SMILES)	Met Kinase % Inhibition (P.130)
Cc1c(Br)ccc2c1C(=Cc1cccc(Oc3ccc(Cl)c(Cl)c3)c1)C(=O)N2 [10738/C03]	22.7%
COc1ccc(C=C2C(=O)Nc3ccc(Br)c(C)c32)cc1O [10738/C04]	53.7%
Cc1c(Br)ccc2c1C(=Cc1cc(O)ccc1[N+](=O)[O-])C(=O)N2 [10738/C05]	34.2%
Cc1c(Br)ccc2c1C(=Cc1cccc(O)c1O)C(=O)N2 [10738/C06]	92.2%
Cc1c(Br)ccc2c1C(=Cc1cc(O)cc(O)c1)C(=O)N2 [10738/C07]	51.2%
Cc1c(Br)ccc2c1C(=Cc1ccc(Cl)c(Cl)c1)C(=O)N2 [10738/C08]	39.5%
COc1ccccc1C=C1C(=O)Nc2ccc(Br)c(C)c21 [10738/C09]	8.9%
Cc1c(Br)ccc2c1C(=Cc1ccc(C(C)C)cc1)C(=O)N2 [10738/C10]	3.2%
CCCOc1ccc(C=C2C(=O)Nc3ccc(Br)c(C)c32)cc1 [10738/C11]	12.0%
CNS(=O)(=O)c1ccc2c(c1)C(=Cc1cccc(Oc3ccc(C)cc3)c1)C(=O)N2 [10738/D02]	15.6%
CNS(=O)(=O)c1ccc2c(c1)C(=Cc1cccc(Oc3ccc(Cl)c(Cl)c3)c1)C(=O)N2 [10738/D03]	16.0%
CNS(=O)(=O)c1ccc2c(c1)C(=Cc1ccc(OC)c(O)c1)C(=O)N2 [10738/D04]	32.2%
CNS(=O)(=O)c1ccc2c(c1)C(=Cc1cc(O)ccc1[N+](=O)[O-])C(=O)N2 [10738/D05]	42.4%
CNS(=O)(=O)c1ccc2c(c1)C(=Cc1cccc(O)c1O)C(=O)N2 [10738/D06]	96.0%
CNS(=O)(=O)c1ccc2c(c1)C(=Cc1cc(O)cc(O)c1)C(=O)N2 [10738/D07]	68.3%
CNS(=O)(=O)c1ccc2c(c1)C(=Cc1ccc(Cl)c(Cl)c1)C(=O)N2 [10738/D08]	37.7%
CNS(=O)(=O)c1ccc2c(c1)C(=Cc1ccccc1OC)C(=O)N2 [10738/D09]	22.7%
CNS(=O)(=O)c1ccc2c(c1)C(=Cc1ccc(C(C)C)cc1)C(=O)N2 [10738/D10]	25.3%
CCCOc1ccc(C=C2C(=O)Nc3ccc(S(=O)(=O)NC)cc32)cc1 [10738/D11]	4.3%
Cc1ccc(Oc2cccc(C=C3C(=O)Nc4ccc(S(=O)(=O)Nc5ccc(C(F)(F)F)cc5)cc43)c2)cc1 [10738/E02]	3.8%
O=C1Nc2ccc(S(=O)(=O)Nc3ccc(C(F)(F)F)cc3)cc2C1=Cc1cccc(Oc2ccc(Cl)c(Cl)c2)c1 [10738/E03]	21.1%
COc1ccc(C=C2C(=O)Nc3ccc(S(=O)(=O)Nc4ccc(C(F)(F)F)cc4)cc32)cc1O [10738/E04]	64.1%
O=C1Nc2ccc(S(=O)(=O)Nc3ccc(C(F)(F)F)cc3)cc2C1=Cc1cc(O)ccc1[N+](=O)[O-] [10738/E05]	61.0%
O=C1Nc2ccc(S(=O)(=O)Nc3ccc(C(F)(F)F)cc3)cc2C1=Cc1cccc(O)c1O [10738/E06]	92.4%
O=C1Nc2ccc(S(=O)(=O)Nc3ccc(C(F)(F)F)cc3)cc2C1=Cc1cc(O)cc(O)c1 [10738/E07]	89.3%
O=C1Nc2ccc(S(=O)(=O)Nc3ccc(C(F)(F)F)cc3)cc2C1=Cc1ccc(Cl)c(Cl)c1 [10738/E08]	52.6%

Structure (SMILES)	Met Kinase % Inhibition (P.130)
COc1ccccc1C=C1C(=O)Nc2ccc(S(=O)(=O)Nc3ccc(C(F)(F)F)cc3)cc21 [10738/E09]	18.0%
CC(C)c1ccc(C=C2C(=O)Nc3ccc(S(=O)(=O)Nc4ccc(C(F)(F)F)cc4)cc32)cc1 [10738/E10]	5.8%
CCCOc1ccc(C=C2C(=O)Nc3ccc(S(=O)(=O)Nc4ccc(C(F)(F)F)cc4)cc32)cc1 [10738/E11]	11.8%
Cc1ccc(Oc2cccc(C=C3C(=O)Nc4ccc(S(=O)(=O)N5CCOCC5)cc43)c2)cc1 [10738/F02]	66.1%
O=C1Nc2ccc(S(=O)(=O)N3CCOCC3)cc2C1=Cc1cccc(Oc2ccc(Cl)c(Cl)c2)c1 [10738/F03]	20.0%
COc1ccc(C=C2C(=O)Nc3ccc(S(=O)(=O)N4CCOCC4)cc32)cc1O [10738/F04]	61.4%
O=C1Nc2ccc(S(=O)(=O)N3CCOCC3)cc2C1=Cc1cc(O)ccc1[N+](=O)[O-] [10738/F05]	33.5%
O=C1Nc2ccc(S(=O)(=O)N3CCOCC3)cc2C1=Cc1cccc(O)c1O [10738/F06]	86.7%
O=C1Nc2ccc(S(=O)(=O)N3CCOCC3)cc2C1=Cc1cc(O)cc(O)c1 [10738/F07]	52.3%
O=C1Nc2ccc(S(=O)(=O)N3CCOCC3)cc2C1=Cc1ccc(Cl)c(Cl)c1 [10738/F08]	60.5%
COc1ccccc1C=C1C(=O)Nc2ccc(S(=O)(=O)N3CCOCC3)cc21 [10738/F09]	28.9%
CC(C)c1ccc(C=C2C(=O)Nc3ccc(S(=O)(=O)N4CCOCC4)cc32)cc1 [10738/F10]	47.9%
CCCOc1ccc(C=C2C(=O)Nc3ccc(S(=O)(=O)N4CCOCC4)cc32)cc1 [10738/F11]	52.6%
Cc1ccc(Oc2cccc(C=C3C(=O)Nc4ccc(CCCl)cc43)c2)cc1 [10738/G02]	16.9%
O=C1Nc2ccc(CCCl)cc2C1=Cc1cccc(Oc2ccc(Cl)c(Cl)c2)c1 [10738/G03]	32.8%
COc1ccc(C=C2C(=O)Nc3ccc(CCCl)cc32)cc1O [10738/G04]	42.6%
O=C1Nc2ccc(CCCl)cc2C1=Cc1cc(O)ccc1[N+](=O)[O-] [10738/G05]	27.3%
O=C1Nc2ccc(CCCl)cc2C1=Cc1cccc(O)c1O [10738/G06]	86.5%
O=C1Nc2ccc(CCCl)cc2C1=Cc1cc(O)cc(O)c1 [10738/G07]	40.4%
O=C1Nc2ccc(CCCl)cc2C1=Cc1ccc(Cl)c(Cl)c1 [10738/G08]	36.8%
COc1ccccc1C=C1C(=O)Nc2ccc(CCCl)cc21 [10738/G09]	16.9%
CC(C)c1ccc(C=C2C(=O)Nc3ccc(CCCl)cc32)cc1 [10738/G10]	12.5%
CCCOc1ccc(C=C2C(=O)Nc3ccc(CCCl)cc32)cc1 [10738/G11]	22.2%
Cc1ccc(Oc2cccc(C=C3C(=O)Nc4c(Br)cc(Br)c(C)c43)c2)cc1 [10738/H02]	35.3%
